Reference: paper PMC6434189, “Peperomin E and its orally bioavailable analog induce oxidative stress-mediated apoptosis of acute myeloid leukemia progenitor cells by targeting thioredoxin reductase” (Redox Biology, 2019)

Key:
[1] = system: primary CD34+ AML cells; assay: CCK-8 cell viability assay on primary CD34+ AML cells; format: cell-based, human; conditions: for viability at 6 µM: Homo sapiens, 48 h, CCK-8, read-out: cells viable (average)
Procedure: (§1) The mononuclear cells were further enriched for CD34 positive cells using the MACS CD34 MicroBead kit following the manufacturer's protocol. Enriched CD34 cell-purity was measured by flow cytometry-based quantification of cells stained using an anti-CD34-FITC antigen. Isolated CD34^+ cells were pre-incubated in the IMDM-based serum-free media for 1 h before the addition of drugs. PepE was dissolved in DMSO to make a 100 mM stock solution and stored in aliquots at – 20 °C. The 100 mM stock solution was diluted with DMSO to 10 mM and then diluted with PBS to 1 mM before treating the cells at the indicated concentrations. DMAPE and Ara-C were diluted in PBS to 1 mM concentration before use.
(§2) Unless otherwise mentioned, 2 × 10^4 cells were seeded at 96-well plates (Corning, New York, USA) in the IMDM-based serum-free media for 1 h. Then, the cells were incubated with different concentrations of PepE and DMAPE at 37 °C in a 5% CO2 incubator for 48 h. At the end of the treatment, 10 μL CCK-8 solution was added to each well and incubated for an additional 2 h at 37 °C, and the absorbance at 450 nm was measured with a microplate reader (Thermo Scientific, Multiskan GO, Finland). Inhibition ratio (%) was calculated as [(absorbance of control − absorbance of the test sample)/absorbance of control] x 100%.

[2] = system: CD34+ NBM cells and hBMSCs; assay: CCK-8 cell viability assay on normal CD34+ NBM cells and hBMSCs; format: cell-based, human; conditions: 48 h; for toxicity on control CD34+ NBM cells and hBMSCs: 6 μM; for effects on NBM and hBMSC cells: 12 μM
Procedure: as §1, §2

[3] = system: KG-1a CD34+ cells; assay: Annexin V-FITC/PI apoptosis assay; format: cell-based, human; conditions: 6 μM; for cell apoptosis (early + late): 12 h; for apoptotic population (early + late): 24 h
Source text: The cells were harvested and washed twice with PBS. The apoptotic cells, necrotic cells, and live cells were identified by PI and Annexin V-FITC staining assay following the manufacturer's instructions. Data were obtained and analyzed using a BD Accuri™ C6 flow cytometer (BD Biosciences, San Jose, CA, USA) with CellQuest software (BD Biosciences).

[4] = system: KG-1a CD34+ cells; assay: Intracellular ROS measurement (DCFH-DA / DHE); format: cell-based, human; conditions: 6 μM; blocked by NAC pretreatment
Procedure: KG-1a CD34^+ cells and other sorted primary APCs (5 × 10^5) were plated in FBS-free IMDM medium in 12-well plates (Corning) and were treated with 5 μM of Ara-C and 6 μM PepE or DMAPE in the presence or absence of 5 mM NAC for 2 h. The ROS indicator DCFH-DA (10 μM) or DHE (10 μM) in fresh FBS-free medium was added to each well, and further incubated in the dark for 30 min at 37 °C. The cells were visualized and photographed under an Olympus inverted fluorescence microscope IX-73 (Tokyo, Japan) with Metamorph software (Molecular Devices, Downingtown, PA, USA).

[5] = system: TrxR1 KD cells (KG-1a CD34+); assay: CCK-8 viability in TrxR1 knockdown KG-1a CD34+ cells; format: cell-based, human; conditions: 48 h
Procedure: as §2
For TrxR1 knockdown experiment, KG-1a CD34^+ cells were seeded in a six-well plate at 2.5 × 10^5/well in antibiotic-free IMDM medium for 24 h; then cells were washed once with 2 ml of shRNA transfection medium (Santa Cruz Biotech, sc-108062) and transfected with either TrxR1 shRNA plasmid (Santa Cruz Biotech, sc-36750-SH) or Control shRNA plasmid (negative control, Santa Cruz Biotech, sc-108060) according to the manufacturer's instructions. Briefly, for each transfection, 0.1 ml of shRNA (TrxR1 or control) duplex solution (containing 1 μg of shRNA plasmids) and 0.1 ml of transfection reagent (Santa Cruz Biotech, sc-108061) were gently mixed and incubated at room temperature for 30 min. […] The knockdown efficiencies were evaluated by western blot and RT-qPCR analyses.

[6] = system: TrxR1 overexpressed KG-1a cells (ACTV cells); assay: CCK-8 viability in TrxR1 overexpressed KG-1a cells; format: cell-based, human; conditions: 48 h
Procedure: as §2
For TrxR1 overexpression experiment, KG-1a CD34^+ cells were seeded in a six-well plate at 2.5 × 10^5/well in antibiotic-free IMDM medium for 24 h, then cells were transfected with TrxR1 CRISPR activation plasmids (control CRISPR plasmids as a negative control) according to the manufacturer's instructions. Briefly, for each transfection, 0.15 ml of the Plasmid DNA solution (containing 3 μg of TrxR1 activation or control DNA plasmids) and 0.15 ml of diluted UltraCruz transfection reagent (Santa Cruz Biotech, sc-395739) were gently mixed and added to the cells. […] The activation efficiencies were evaluated by western blot and RT-qPCR analyses.

[7] = system: Trx1 in KG-1a CD34+ cells; assay: Trx1 redox state assay (PAO-Sepharose pull down); format: cell-based, human; conditions: 5 μM, 24 h
Procedure: The redox state of Trx1 was determined using Liu's method. Phenylarsine oxide (PAO)-Sepharose was prepared by immobilization of PAO on Sepharose 4B according to Liu's report. The reduced form was pulled down on the Sepharose, while the oxidized form remained in the solution. Briefly, the KG-1a CD34^+ cells were treated with 5 μM PepE/DMAPE or vehicle control (DMSO) for 24 h. The cellular proteins were extracted by RIPA buffer and quantified by the Bradford method. The fully oxidized and reduced controls were prepared by incubating the non-treated cell lysate with diamide (2 mM) and TCEP (2 mM) for 1 h at 37 °C, respectively. The cell lysates were then incubated with PAO-sepharose on a rotating shaker for 1 h at room temperature. The supernatant was collected and the PAO-sepharose was washed with Tris-EDTA buffer. Then, the reduced Trx1 was eluted using Tris-EDTA buffer containing DPMS (10 mM). All samples were separated on SDS-PAGE and electrotransferred to PVDF membrane for western blot analyses. The bands were analyzed using Gel-pro 32 software.

[8] = Stability of the analytes in rat plasma (UFLC-MS/MS); format: in vitro ADME; conditions: for Freeze-thaw 3 cycles RE (%) / Store at -20℃ for 24h RE (%) / Store at auto-sampler RE (%): rat plasma, n=6; for stability in rat plasma samples: −20 °C for 15 days, three freeze/thaw cycles, room temperature 6 h, autosampler 4 °C 12 h

COc1cc(C(c2cc(OC)c3c(c2)OCO3)[C@@H]2COC(=O)[C@H]2CN(C)CCO)cc2c1OCO2 [DMAPE, (2S,3S)-6-Methyl (hydroxyethyl) amino-2,6-dihydropeperomin E]
viability at 6 µM [1]: 28.9% | toxicity on control CD34+ NBM cells and hBMSCs [2]: reduced toxicities | effects on NBM and hBMSC cells [2]: relatively safe | cell apoptosis (early + late) [3]: ~55% | apoptotic population (early + late) [3]: ~90% | ROS level by DCFH-DA staining [4]: burst of ROS | potency toward TrxR1 KD cells compared to CTRL KD cells [5]: elevated potency | toxicity against ACTV cells vs CTRL ACTV cells [6]: significant lower toxicity | oxidized form of Trx [7]: significantly increased | Freeze-thaw 3 cycles RE (%) ([8]; 5 ng/ml): -13.1% | Store at -20℃ for 24h RE (%) ([8]; 5 ng/ml): -11.0% | Store at auto-sampler RE (%) ([8]; 5 ng/ml): -11.3% | Freeze-thaw 3 cycles RE (%) ([8]; 200 ng/ml): 11.2% | Store at -20℃ for 24h RE (%) ([8]; 200 ng/ml): 3.0% | Store at auto-sampler RE (%) ([8]; 200 ng/ml): -1.3% | Freeze-thaw 3 cycles RE (%) ([8]; 1000 ng/ml): -5.1% | Store at -20℃ for 24h RE (%) ([8]; 1000 ng/ml): 3.3% | Store at auto-sampler RE (%) ([8]; 1000 ng/ml): -3.7% | stability in rat plasma samples [8]: stable

C=C1C(=O)OC[C@H]1C(c1cc(OC)c2c(c1)OCO2)c1cc(OC)c2c(c1)OCO2 [PepE, Peperomin E]
concentration range inducing apoptosis of human primary CD34+ AML cells [1]: 4 to 6 µM | viability at 6 µM [1]: 24% | toxicity on control CD34+ NBM cells and hBMSCs [2]: reduced toxicities | effects on NBM and hBMSC cells [2]: modest effects | cell apoptosis (early + late) [3]: ~65% | apoptotic population (early + late) [3]: ~85% | ROS level by DCFH-DA staining [4]: burst of ROS | potency toward TrxR1 KD cells compared to CTRL KD cells [5]: elevated potency | toxicity against ACTV cells vs CTRL ACTV cells [6]: significant lower toxicity | oxidized form of Trx [7]: significantly increased | Freeze-thaw 3 cycles RE (%) ([8]; 5 ng/ml): -11.5% | Store at -20℃ for 24h RE (%) ([8]; 5 ng/ml): 4.4% | Store at auto-sampler RE (%) ([8]; 5 ng/ml): -10.1% | Freeze-thaw 3 cycles RE (%) ([8]; 200 ng/ml): -13.2% | Store at -20℃ for 24h RE (%) ([8]; 200 ng/ml): 11.9% | Store at auto-sampler RE (%) ([8]; 200 ng/ml): -10.5% | Freeze-thaw 3 cycles RE (%) ([8]; 1000 ng/ml): -3.6% | Store at -20℃ for 24h RE (%) ([8]; 1000 ng/ml): 1.7% | Store at auto-sampler RE (%) ([8]; 1000 ng/ml): -7.2% | stability in rat plasma samples [8]: stable
